{
  "source": "paper PMC2713251",
  "about": "“Discovery of novel inhibitors of Streptococcus pneumoniae based on the virtual screening with the homology-modeled structure of histidine kinase (VicK)” (BMC Microbiology, 2009)",
  "target": "T1, VicK' (cytoplasmic HisKA and HATPase_c domains of histidine kinase VicK) (Streptococcus pneumoniae, UniProt A0A0H2ZNH9)",
  "T1 construct": "gene walK",
  "T1 sequence (A0A0H2ZNH9 201-449)": "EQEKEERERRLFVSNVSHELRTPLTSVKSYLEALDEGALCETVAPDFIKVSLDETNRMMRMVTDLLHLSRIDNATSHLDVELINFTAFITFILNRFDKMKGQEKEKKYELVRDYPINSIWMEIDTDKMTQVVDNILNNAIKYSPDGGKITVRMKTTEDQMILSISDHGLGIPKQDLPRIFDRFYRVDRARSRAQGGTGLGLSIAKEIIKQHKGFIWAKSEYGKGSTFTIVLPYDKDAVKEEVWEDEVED",
  "experiment": "Kinase-Glo luminescent assay of residual ATP (ATPase / autophosphorylation)",
  "format": "biochemical",
  "conditions": "read-out: IC50 (μM) for VicK' protein",
  "text": "Kinase-Glo luminescent assay of residual ATP (ATPase / autophosphorylation) on VicK' (cytoplasmic HisKA and HATPase_c domains of histidine kinase VicK)",
  "data": [
    {"smiles": "Cn1nnnc1SCCCNCc1ccc(-c2ccccc2F)o1", "note": "[compound 4, Compound 4]", "values": [
      {"measurement": "IC50", "result": "> 1000", "unit": "µM"}
    ]},
    {"smiles": "COc1ccc(-c2ccc(CNCCNC(=O)c3nonc3N)o2)cc1Cl", "note": "[compound 2, Compound 2]", "values": [
      {"measurement": "IC50", "result": 562, "unit": "µM"}
    ]},
    {"smiles": "c1ccc2[nH]c(Nc3ccc(-c4ccc(Nc5nc6ccccc6[nH]5)cc4)cc3)nc2c1", "note": "[compound 6, Compound 6]", "values": [
      {"measurement": "IC50", "result": 32.6, "unit": "µM"}
    ]},
    {"smiles": "COc1ccc(CCNCc2ccc(-c3ccccc3)o2)cc1OC", "note": "[compound 3, Compound 3]", "values": [
      {"measurement": "IC50", "result": 503, "unit": "µM"}
    ]},
    {"smiles": "Nc1nonc1C(=O)NCCNCc1ccc(OCc2cccs2)cc1", "note": "[compound 1, Compound 1]", "values": [
      {"measurement": "IC50", "result": 542, "unit": "µM"}
    ]},
    {"smiles": "Cn1nnnc1SCCCNCc1ccc(-c2ccc(F)c(Cl)c2)o1", "note": "[compound 5, Compound 5]", "values": [
      {"measurement": "IC50", "result": 598, "unit": "µM"}
    ]}
  ]
}
